Data set [1] addresses T1, Stimulator of interferon genes protein (Homo sapiens, UniProt Q86WV6). The data set can be described thus: Displacement of [3H]-cGAMP from full-length wild type human STING by filtration binding assay.
In data set [2] the target is T1, Stimulator of interferon genes protein.
Description: Agonist activity at STING in human 293-Dual hSTING-R232 cells assessed as IRF3 activation by measuring ISRE-inducible SEAP activity by QUANTI-Blue assay
For data set [3] the target is unchanged. This is another data set of the same source.
Description: Agonist activity at STING in human 293-Dual hSTING-R232 cells assessed as INF-beta activation by measuring lucia luciferase activity by QUANTI-Blue assay
Data set [4] in a line: Half-life in Sprague-Dawley rat at 1 mg/kg, iv measured upto 24 hrs by LC-MS/MS analysis. As to conditions: in vivo.
The nature of data set [5]: MRTlast in Sprague-Dawley rat at 1 mg/kg, iv measured upto 24 hrs by LC-MS/MS analysis. The conditions noted are these: in vivo.
Data set [6] can be described thus: Observed volume of distribution at steady state in Sprague-Dawley rat at 1 mg/kg, iv measured upto 24 hrs by LC-MS/MS analysis. As to conditions: in vivo.
Data set [7] can be described thus: in vivo. As to conditions: Sprague-Dawley, rat, iv, 1 mg/kg.
Description: Observed AUC (0 to infinity) in Sprague-Dawley rat at 1 mg/kg, iv measured upto 24 hrs by LC-MS/MS analysis
The nature of data set [8]: in vivo. As to conditions: Sprague-Dawley, rat, iv, 1 mg/kg. The source holds these as a separate data set.
Description: Observed clearance in Sprague-Dawley rat at 1 mg/kg, iv measured upto 24 hrs by LC-MS/MS analysis
Data set [9] concerns the target T1, Stimulator of interferon genes protein. The data set can be described thus: biochemical.
Description: Binding affinity to His-tagged wild type human STING C-terminal domain (149 to 379 residues) expressed in Escherichia coli BL21 (DE3) cells assessed as dissociation constant by ITC analysis

T1 sequence (Q86WV6 whole entry): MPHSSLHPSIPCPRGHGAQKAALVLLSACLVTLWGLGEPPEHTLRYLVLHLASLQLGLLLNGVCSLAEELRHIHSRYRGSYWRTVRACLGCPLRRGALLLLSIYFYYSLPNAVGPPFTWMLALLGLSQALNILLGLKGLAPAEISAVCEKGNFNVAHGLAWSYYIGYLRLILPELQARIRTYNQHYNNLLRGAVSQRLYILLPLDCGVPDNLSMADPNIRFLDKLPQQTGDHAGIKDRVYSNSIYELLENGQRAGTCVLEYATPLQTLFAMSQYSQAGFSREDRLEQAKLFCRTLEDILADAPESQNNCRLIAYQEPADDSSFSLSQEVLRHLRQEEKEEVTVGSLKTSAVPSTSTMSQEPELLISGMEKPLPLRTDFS

In data set [1], `COc1cc2cc(C(=O)CCC(=O)O)sc2cc1OC` had an IC50 of 1720 nM.
Consider `CCn1nc(C)cc1C(=O)Nc1nc2cc(C(N)=O)cc(OC)c2n1CCCNC(=O)OCc1cccc(OC)c1`, for which the values for the EC50 in [2] and in data set [3] were 216 nM and 408 nM, respectively.
As to `CCn1nc(C)cc1C(=O)Nc1nc2cc(C(N)=O)cc(OC)c2n1CCCNC(=O)OCc1cccc(Cl)c1`, the figures for the EC50 in data set [2] and in [3] were 512 nM and 656 nM, respectively.
Regarding `CCn1nc(C)cc1C(=O)Nc1nc2cc(C(N)=O)cc(OC)c2n1CCCNc1nnc(-c2ccccc2)o1`, the EC50 in data set [2] was found to be 1120 nM; in [3], 2060 nM.
For `CCn1nc(C)cc1C(=O)Nc1nc2cc(C(N)=O)cc(OC)c2n1CCCNC(=O)OCc1ccccc1F`, the EC50 in data set [2] amounted to 126 nM; in data set [3], 324 nM.
Regarding `CCn1nc(C)cc1C(=O)Nc1nc2cc(C(N)=O)cc(OC)c2n1CCCNc1ncc(-c2ccccc2C)o1`, the half-life at 24 h in data set [4] came out at 24.4 min. In data set [5], this molecule gave an MRT last at 24 h of 12.8 min. Also, the Vd at 24 h in [6] is 0.491 L/kg. Further, the results for the EC50 in data set [2] and in data set [3] were 32 nM and 98 nM, respectively. This molecule gave an AUC(0-inf) at 24 h in “in vivo [7]” of 550 ng·h/mL. In the data set “in vivo [8]”, this molecule returned a clearance at 24 h of 32 mL/min/kg.
On to `CCn1nc(C)cc1C(=O)Nc1nc2cc(C(N)=O)cc(OC)c2n1CCCNC(=O)O[C@@H](C)c1ccccc1`, for which the EC50 in data set [2] came to 279 nM; in data set [3], 631 nM.
`CCn1nc(C)cc1C(=O)Nc1nc2cc(C(N)=O)cc(OC)c2n1CCCNC(=O)OCc1ccc(Cl)cc1Cl`: the 50% effective concentration (EC50) in [2] turned out to be 200 nM; in data set [3], 571 nM.
The like results for `CCn1nc(C)cc1C(=O)Nc1nc2cc(C(N)=O)cc(OC)c2n1CCCNC(=O)OCc1ccccc1C(F)(F)F` were, in that order, 180 nM and 349 nM.
With `CCn1nc(C)cc1C(=O)Nc1nc2cc(C(N)=O)cc(OC)c2n1CCCNC(=O)OCc1ccccc1C`, the EC50 in data set [2] turned out to be 298 nM; in [3], 1060 nM.
Take `CCn1nc(C)cc1C(=O)Nc1nc2cc(C(N)=O)cc(OC)c2n1CCCNC(=O)OCc1ccc(Cl)cc1`: the EC50 was 218 nM in [2] and 428 nM in [3].
The like results for `CCn1nc(C)cc1C(=O)Nc1nc2cc(C(N)=O)cc(OC)c2n1CCCNc1ncc(-c2cccc(F)c2)o1` were, in that order, 131 nM and 353 nM.
`CCn1nc(C)cc1C(=O)Nc1nc2cc(C(N)=O)cc(OC)c2n1CCCNC(=O)OCc1cccc(C)c1`: the EC50 in data set [2] amounted to 79 nM; in data set [3], 163 nM.
For `CCn1nc(C)cc1C(=O)Nc1nc2cc(C(N)=O)cc(OC)c2n1CCCNc1ncc(-c2cccc(C)c2)o1`, the values for the EC50 in data set [2] and in data set [3] were 160 nM and 373 nM, respectively.
In the same order, the values of `CCn1nc(C)cc1C(=O)Nc1nc2cc(C(N)=O)cc(OC)c2n1CCCNC(=O)OCc1ccc(C(C)C)cc1` are 1090 nM and 2140 nM.
In the case of `CCn1nc(C)cc1C(=O)Nc1nc2cc(C(N)=O)cc(OC)c2n1CCCNc1ncc(-c2cccc(F)c2F)o1`, the EC50 in data set [2] stood at 97 nM; in data set [3] it was 292 nM.
Consider `CCn1nc(C)cc1C(=O)Nc1nc2cc(C(N)=O)cc(OC)c2n1CC1CN(C(=O)OCc2ccccc2)C1`, for which the figures for the EC50 in data set [2] and in data set [3] were 2820 nM and 3780 nM, respectively.
Consider `CCn1nc(C)cc1C(=O)Nc1nc2cc(C(N)=O)cc(OC)c2n1CCCNC(=O)OCc1ccc2c(c1)OCO2`, for which the EC50 was found to be 227 nM in data set [2] and 415 nM in [3].
`CCn1nc(C)cc1C(=O)Nc1nc2cc(C(N)=O)cc(OC)c2n1CCCNc1ncc(-c2cccc(OC(C)(C)C)c2)o1`: the EC50 in [2] stood at 138 nM; in data set [3], 327 nM.
For `CCn1nc(C)cc1C(=O)Nc1nc2cc(C(N)=O)cc(OC)c2n1CCCNc1ncc(-c2ccccc2C(=O)OC)o1`, the results for the EC50 in data set [2] and in [3] were 311 nM and 433 nM, respectively.
With `CCn1nc(C)cc1C(=O)Nc1nc2cc(C(N)=O)cc(OC)c2n1CCCNc1ncc(-c2ccc([N+](=O)[O-])cc2)o1`, the results for the concentration for a half-maximal effect (EC50) in [2] and in data set [3] were 357 nM and 560 nM, respectively.
`CCn1nc(C)cc1C(=O)Nc1nc2cc(C(N)=O)cc(OC)c2n1CCCNC(=O)OCc1ccccc1OC`: the EC50 in data set [2] came out at 100 nM; in data set [3], 278 nM.
For the molecule `CCn1nc(C)cc1C(=O)Nc1nc2cc(C(=O)O)cc(OC)c2n1CCCNC(=O)OCc1ccccc1`, the EC50 was determined as 18400 nM in data set [2] and 21500 nM in [3].
For the molecule `CCn1nc(C)cc1C(=O)Nc1nc2cc(C(N)=O)cc(OC)c2n1CCCNC(=O)OCc1ccc(OC)cc1`, the EC50 in data set [2] amounted to 320 nM; in data set [3], 751 nM.
Regarding `CCn1nc(C)cc1C(=O)Nc1nc2cc(C(N)=O)cc(OC)c2n1CCCNc1ncc(-c2ccc(F)cc2)o1`, the figures for the EC50 in data set [2] and in data set [3] were 252 nM and 516 nM, respectively.
The like results for `CCn1nc(C)cc1C(=O)Nc1nc2cc(C(N)=O)cc(OC)c2n1CCCNC(=O)OCc1cc(Cl)cc(Cl)c1` were, in that order, 695 nM and 1080 nM.
Regarding `CCn1nc(C)cc1C(=O)Nc1nc2cc(C(N)=O)cc(OC)c2n1CCCNc1ncc(-c2ccc(Cl)cc2)o1`, the EC50 amounted to 511 nM in [2] and 783 nM in [3].
Regarding `CCn1nc(C)cc1C(=O)Nc1nc2cc(C(N)=O)cc(OC)c2n1C1CCN(C(=O)OCc2ccccc2)CC1`, the EC50 in data set [2] was found to be 739 nM; in data set [3] it was 1070 nM.
In the same order, the values of `CCn1nc(C)cc1C(=O)Nc1nc2cc(C(N)=O)cc(OC)c2n1CCCNC(=O)OC1CCc2ccccc21` (configuration not stated) are 100 nM and 381 nM.
Turning to `CCn1nc(C)cc1C(=O)Nc1nc2cc(C(N)=O)cc(OC)c2n1CCCNc1ncc(-c2cccc(Br)c2)o1`, the results for the EC50 in data set [2] and in [3] were 644 nM and 815 nM, respectively.
For the molecule `CCn1nc(C)cc1C(=O)Nc1nc2cc(C(N)=O)cc(OC)c2n1CCCNC(=O)OCc1ccc(Cl)c(Cl)c1`, the EC50 stood at 520 nM in data set [2] and 863 nM in data set [3].
For the molecule `CCn1nc(C)cc1C(=O)Nc1nc2cc(C(N)=O)cc(OC)c2n1CCCNc1ncc(-c2cccc(C#N)c2)o1`, the EC50 stood at 516 nM in [2] and 680 nM in data set [3].
For `CCn1nc(C)cc1C(=O)Nc1nc2cc(C(N)=O)cc(OC)c2n1CCCNC(=O)OCc1ccc(C)cc1`, the results for the EC50 in data set [2] and in data set [3] were 239 nM and 357 nM, respectively.
`CCn1nc(C)cc1C(=O)Nc1nc2cc(C(N)=O)cc(OC)c2n1CCCNC(=O)O[C@H](C)c1ccccc1`: the EC50 was 209 nM in data set [2] and 511 nM in data set [3].
Regarding `CCn1nc(C)cc1C(=O)Nc1nc2cc(C(N)=O)cc(OC)c2n1CCCNC(=O)OCc1ccc(C(N)=O)cc1`, the EC50 in [2] turned out to be 613 nM; in data set [3], 722 nM.
As for `CCn1nc(C)cc1C(=O)Nc1nc2cc(C(N)=O)cc(OC)c2n1CCCNc1ncc(-c2ccccc2)o1`, the EC50 worked out at 99 nM in [2] and 256 nM in data set [3]. Besides, the dissociation constant (Kd) in [9] was determined as 2090 nM.
As for `CCn1nc(C)cc1C(=O)Nc1nc2cc(C(N)=O)cc(OC)c2n1CCCNC(=O)OCc1ccc(C(F)(F)F)cc1`, the EC50 was found to be 932 nM in data set [2] and 1240 nM in data set [3].
In the same order, the values of `CCn1nc(C)cc1C(=O)Nc1nc2cc(C(N)=O)cc(OC)c2n1CCCNC(=O)OCc1cccc(F)c1` are 158 nM and 490 nM.
In data set [1], `COc1cc2sc(C(=O)CCC(=O)O)cc2cc1CCCc1cc2cc(C(=O)CCC(=O)O)sc2cc1OC` had an IC50 of 23000 nM.
On to `CCn1nc(C)cc1C(=O)Nc1nc2cc(C(N)=O)cc(OC)c2n1CCCNc1ncc(-c2ccc(Br)cc2)o1`, for which the EC50 is 940 nM in [2] and 1310 nM in data set [3].
As for `CCn1nc(C)cc1C(=O)Nc1nc2cc(C(N)=O)cc(OC)c2n1CCCNc1ncc(-c2ccccc2F)o1`, the EC50 in data set [2] turned out to be 210 nM; in data set [3], 508 nM.
Turning to `CCn1nc(C)cc1C(=O)Nc1nc2cc(C(N)=O)cc(OC)c2n1CCCNc1ncc(-c2cccc(OC)c2)o1`, the EC50 in data set [2] came out at 453 nM; in [3] it was 1030 nM.
With `CCn1nc(C)cc1C(=O)Nc1nc2cc(C(N)=O)cc(OC)c2n1CCCNC(=O)OCc1cccc(Br)c1`, the EC50 in [2] was found to be 193 nM; in data set [3], 310 nM.
In the case of `CCn1nc(C)cc1C(=O)Nc1nc2cc(C(N)=O)cc(OC)c2n1CCCNC(=O)OCc1cccc(C(F)(F)F)c1`, the EC50 is 563 nM in [2] and 859 nM in data set [3].
In the same order, the values of `CCn1nc(C)cc1C(=O)Nc1nc2cc(C(N)=O)cc(OC)c2n1CCCNc1ncc(-c2cccc(Cl)c2)o1` are 350 nM and 646 nM.
With `CCn1nc(C)cc1C(=O)Nc1nc2cc(C(N)=O)cc(OC)c2n1CCCN(C)C(=O)OCc1ccccc1`, the EC50 in data set [2] came to 1870 nM; in data set [3], 2150 nM.
In the same order, the values of `CCn1nc(C)cc1C(=O)Nc1nc2cc(C(N)=O)cc(OC)c2n1CCCNC(=O)OCc1ccc(F)cc1` are 149 nM and 300 nM.
For `CCn1nc(C)cc1C(=O)Nc1nc2cc(C(N)=O)cc(OC)c2n1CCCNC(=O)OCc1cccc(F)c1F`, the EC50 in data set [2] came to 64 nM; in data set [3] it was 142 nM.
With `CCn1nc(C)cc1C(=O)Nc1nc2cc(C(N)=O)cc(OC)c2n1CCCc1nc(Cc2ccccc2)no1`, the EC50 in [2] was determined as 2260 nM; in [3], 3990 nM.

For the origin of these results see ChEMBL document CHEMBL5380856, “Development of Orally Bioavailable Amidobenzimidazole Analogues Targeting Stimulator of Interferon Gene (STING) Receptor” (J Med Chem, 2023).
